Laboratory results as given in patent US10597388B2, “Pyridazinone herbicides” (FMC CORPORATION, priority 2014, dated 2020).

How the values were obtained:
Test in all cases: Test D controlled growth environment herbicide test, pre- and postemergence
Type in all cases: in vivo
[1] = tested on: wheat, winter (winter wheat, Triticum aestivum)
Text: (§1) Seeds of plant species selected from bluegrass (annual bluegrass, Poa annua), blackgrass (Alopecurus myosuroides), Canada thistle (Cirsium arvense), canarygrass (Phalaris minor), chickweed (common chickweed, Stellaria media), geranium, cutleaf (cutleaf geranium, Geranium dissectum), galium (catchweed bedstraw, Galium aparine), bromegrass, downy (downy bromegrass, Bromus tectorum), field poppy (Papaver rhoeas), field violet (Viola arvensis), foxtail, green (green foxtail, Setaria viridis), deadnettle (henbit deadnettle, Lamium amplexicaule), ryegrass, Italian (Italian ryegrass, Lolium multiflorum), kochia (Kochia scoparia), lambsquarters (Chenopodium album), oilseed rape (Brassica napus), pigweed (Amaranthus retroflexus), chamomile (scentless chamomile, Matricaria inodora), Russian thistle (Salsola kali), speedwell (bird's-eye speedwell, Veronica persica), barley, spring (spring barley, Hordeum vulgare), wheat, spring (spring wheat, Triticum aestivum), buckwheat, wild (wild buckwheat, Polygonum convolvulus), mustard, wild (wild mustard, Sinapis arvensis), oat, wild (wild oat, Avena fatua), radish, wild (wild radish, Raphanus raphanistrum), windgrass (Apera spica-venti), barley, winter (winter barley, Hordeum vulgare), and wheat, winter (winter wheat, Triticum aestivum) were planted into a silt loam soil and treated preemergence with test chemicals formulated in a non-phytotoxic solvent mixture which included a surfactant.
(§2) At the same time, these species were planted in pots containing Redi-Earth® planting medium (Scotts Company, 14111 Scottslawn Road, Marysville, Ohio 43041) comprising spaghnum peat moss, vermiculite, wetting agent and starter nutrients and treated with postemergence applications of the test chemicals formulated in the same manner. Plants ranged in height from 2 to 18 cm (1- to 4-leaf stage). Treated plants and controls were maintained in a controlled growth environment for 14 to 21 d after which time all species were compared to controls and visually evaluated. Plant response ratings, summarized in Table D, are based on a scale of 0 to 100 where 0 is no effect and 100 is complete control. A dash (-) response means no test result.

[2] = tested on: canarygrass (Phalaris minor)
Text: as §1, §2

[3] = tested on: deadnettle (henbit deadnettle, Lamium amplexicaule)
Text: as §1, §2

[4] = tested on: field violet (Viola arvensis)
Text: as §1, §2

[5] = tested on: ryegrass, Italian (Italian ryegrass, Lolium multiflorum)
Text: as §1, §2

[6] = tested on: windgrass (Apera spica-venti)
Text: as §1, §2

[7] = tested on: wheat, spring (spring wheat, Triticum aestivum)
Text: as §1, §2

kochia (Kochia scoparia) = tested on: kochia (Kochia scoparia)
Text: as §1, §2

[8] = tested on: Russian thistle (Salsola kali)
Text: as §1, §2

[9] = tested on: lambsquarters (Chenopodium album)
Text: as §1, §2

[10] = tested on: chickweed (common chickweed, Stellaria media)
Text: as §1, §2

[11] = tested on: foxtail, green (green foxtail, Setaria viridis)
Text: as §1, §2

[12] = tested on: blackgrass (Alopecurus myosuroides)
Text: as §1, §2

[13] = Postemergence, 31 g ai/ha, scale 0 to 100 (0 no effect, 100 complete control)
[14] = Postemergence, 125 g ai/ha, visual rating on scale 0 (no effect) to 100 (complete control), 14 to 21 d
[15] = Postemergence, 250 g ai/ha, scale 0 to 100 (0 no effect, 100 complete control)
[16] = Preemergence, 62 g ai/ha, scale 0 to 100 (0 no effect, 100 complete control)
[17] = Preemergence, 125 g ai/ha, scale 0 to 100 (0 no effect, 100 complete control)
[18] = Preemergence, 250 g ai/ha, scale 0 to 100 (0 no effect, 100 complete control)
[19] = postemergence, 62 g ai/ha, scale 0 to 100, 0 no effect, 100 complete control

Cc1ccc(-c2c(O)c(Br)nn(C)c2=O)c2ccccc12 [Compound 52]
Wheat, Winter plant response rating [1, 13]: 0
Plant response rating, Wheat, Winter [1, 14]: 15
Plant response rating, Wheat, Winter [1, 15]: 15
Plant response rating (scale of 0 to 100), Wheat, Winter ([1]; Preemergence, 31 g ai/ha): 0
Plant response rating, Wheat, Winter [1, 16]: 0
Plant response rating, Wheat, Winter [1, 17]: 0
Plant response rating, Wheat, Winter [1, 18]: 0
Plant response rating, Wheat, Winter [1, 19]: 10
Canarygrass plant response rating [2, 13]: 0
Plant response rating, Canarygrass [2, 14]: 0
Plant response rating, Canarygrass [2, 15]: 0
Plant response rating (scale of 0 to 100), Canarygrass ([2]; Preemergence, 31 g ai/ha): 20
Plant response rating, Canarygrass [2, 16]: 25
Plant response rating, Canarygrass [2, 17]: 25
Plant response rating, Canarygrass [2, 18]: 35
Plant response rating, Canarygrass [2, 19]: 0
Deadnettle plant response rating [3, 13]: 35
Plant response rating, Deadnettle [3, 14]: 35
Plant response rating, Deadnettle [3, 15]: 35
Plant response rating (scale of 0 to 100), Deadnettle ([3]; Preemergence, 31 g ai/ha): 0
Plant response rating, Deadnettle [3, 16]: 0
Plant response rating, Deadnettle [3, 17]: 10
Plant response rating, Deadnettle [3, 18]: 25
Plant response rating, Deadnettle [3, 19]: 25
Field Violet plant response rating [4, 13]: 35
Plant response rating, Field Violet [4, 14]: 75
Plant response rating, Field Violet [4, 15]: 75
Plant response rating (scale of 0 to 100), Field Violet ([4]; Preemergence, 31 g ai/ha): 0
Plant response rating, Field Violet [4, 16]: 10
Plant response rating, Field Violet [4, 17]: 75
Plant response rating, Field Violet [4, 18]: 85
Plant response rating, Field Violet [4, 19]: 65
Ryegrass, Italian plant response rating [5, 13]: 40
Plant response rating, Ryegrass, Italian [5, 14]: 75
Plant response rating, Ryegrass, Italian [5, 15]: 80
Plant response rating (scale of 0 to 100), Ryegrass, Italian ([5]; Preemergence, 31 g ai/ha): 85
Plant response rating, Ryegrass, Italian [5, 16]: 85
Plant response rating, Ryegrass, Italian [5, 17]: 100
Plant response rating, Ryegrass, Italian [5, 18]: 98
Plant response rating, Ryegrass, Italian [5, 19]: 50
Windgrass plant response rating [6, 13]: 0
Plant response rating, Windgrass [6, 14]: 5
Plant response rating, Windgrass [6, 15]: 5
Plant response rating (scale of 0 to 100), Windgrass ([6]; Preemergence, 31 g ai/ha): 10
Plant response rating, Windgrass [6, 16]: 10
Plant response rating, Windgrass [6, 17]: 10
Plant response rating, Windgrass [6, 18]: 10
Plant response rating, Windgrass [6, 19]: 5
Wheat, Spring plant response rating [7, 13]: 0
Plant response rating, Wheat, Spring [7, 14]: 0
Plant response rating, Wheat, Spring [7, 15]: 5
Plant response rating (scale of 0 to 100), Wheat, Spring ([7]; Preemergence, 31 g ai/ha): 0
Plant response rating, Wheat, Spring [7, 16]: 0
Plant response rating, Wheat, Spring [7, 17]: 0
Plant response rating, Wheat, Spring [7, 18]: 5
Plant response rating, Wheat, Spring [7, 19]: 0
Kochia plant response rating (kochia (Kochia scoparia); [13]): 0
Plant response rating, Kochia (kochia (Kochia scoparia); [14]): 55
Plant response rating, Kochia (kochia (Kochia scoparia); [15]): 65
Plant response rating (scale of 0 to 100), Kochia (kochia (Kochia scoparia); Preemergence, 31 g ai/ha): 15
Plant response rating, Kochia (kochia (Kochia scoparia); [16]): 35
Plant response rating, Kochia (kochia (Kochia scoparia); [17]): 40
Plant response rating, Kochia (kochia (Kochia scoparia); [18]): 90
Plant response rating, Kochia (kochia (Kochia scoparia); [19]): 20
Russian Thistle plant response rating [8, 13]: 20
Plant response rating, Russian Thistle [8, 14]: 45
Plant response rating, Russian Thistle [8, 15]: 55
Plant response rating (scale of 0 to 100), Russian Thistle ([8]; Preemergence, 31 g ai/ha): 0
Plant response rating, Russian Thistle [8, 16]: 0
Plant response rating, Russian Thistle [8, 17]: 0
Plant response rating, Russian Thistle [8, 18]: 0
Plant response rating, Russian Thistle [8, 19]: 35
Lambsquarters plant response rating [9, 13]: 75
Plant response rating, Lambsquarters [9, 14]: 75
Plant response rating, Lambsquarters [9, 15]: 90
Plant response rating (scale of 0 to 100), Lambsquarters ([9]; Preemergence, 31 g ai/ha): 35
Plant response rating, Lambsquarters [9, 16]: 90
Plant response rating, Lambsquarters [9, 17]: 100
Plant response rating, Lambsquarters [9, 18]: 100
Plant response rating, Lambsquarters [9, 19]: 75
Chickweed plant response rating [10, 13]: 90
Plant response rating, Chickweed [10, 14]: 90
Plant response rating, Chickweed [10, 15]: 100
Plant response rating (scale of 0 to 100), Chickweed ([10]; Preemergence, 31 g ai/ha): 98
Plant response rating, Chickweed [10, 16]: 98
Plant response rating, Chickweed [10, 17]: 100
Plant response rating, Chickweed [10, 18]: 100
Plant response rating, Chickweed [10, 19]: 100
Foxtail, Green plant response rating [11, 13]: 5
Plant response rating, Foxtail, Green [11, 14]: 10
Plant response rating, Foxtail, Green [11, 15]: 40
Plant response rating (scale of 0 to 100), Foxtail, Green ([11]; Preemergence, 31 g ai/ha): 0
Plant response rating, Foxtail, Green [11, 16]: 0
Plant response rating, Foxtail, Green [11, 17]: 15
Plant response rating, Foxtail, Green [11, 18]: 35
Plant response rating, Foxtail, Green [11, 19]: 5
Blackgrass plant response rating [12, 13]: 10
Plant response rating, Blackgrass [12, 14]: 15
Plant response rating, Blackgrass [12, 15]: 40
Plant response rating (scale of 0 to 100), Blackgrass ([12]; Preemergence, 31 g ai/ha): 20
Plant response rating, Blackgrass [12, 16]: 20
Plant response rating, Blackgrass [12, 17]: 65
Plant response rating, Blackgrass [12, 18]: 65
Plant response rating, Blackgrass [12, 19]: 15
